Source: article PMC9532951, “Identification and characterization of a novel SNAT2 (SLC38A2) inhibitor reveals synergy with glucose transport inhibition in cancer cells” (Frontiers in Pharmacology, 2022)
“And” between values parts separate entries of the source, which are not always exact repeats. Identical values can stand only once.

Tests used:
SNAT1 and SNAT2 [1] = target: T1, SNAT1 and SNAT2 (Homo sapiens, UniProt Q96QD8); test: FMP assay in HCC1806 clones C10 (ASCT2ko) and D126 (ASCT2ko, SNAT2ko); format: cell-based; conditions: 10 mM; HCC1806 wildtype and C10 cells
T1 construct: endogenous in cells; host or cells: HCC1806 clone C10 (ASCT2ko) and clone D126 (ASCT2ko, SNAT2ko), amino acid depleted for 24 h
T1 sequence (Q96QD8 1-506): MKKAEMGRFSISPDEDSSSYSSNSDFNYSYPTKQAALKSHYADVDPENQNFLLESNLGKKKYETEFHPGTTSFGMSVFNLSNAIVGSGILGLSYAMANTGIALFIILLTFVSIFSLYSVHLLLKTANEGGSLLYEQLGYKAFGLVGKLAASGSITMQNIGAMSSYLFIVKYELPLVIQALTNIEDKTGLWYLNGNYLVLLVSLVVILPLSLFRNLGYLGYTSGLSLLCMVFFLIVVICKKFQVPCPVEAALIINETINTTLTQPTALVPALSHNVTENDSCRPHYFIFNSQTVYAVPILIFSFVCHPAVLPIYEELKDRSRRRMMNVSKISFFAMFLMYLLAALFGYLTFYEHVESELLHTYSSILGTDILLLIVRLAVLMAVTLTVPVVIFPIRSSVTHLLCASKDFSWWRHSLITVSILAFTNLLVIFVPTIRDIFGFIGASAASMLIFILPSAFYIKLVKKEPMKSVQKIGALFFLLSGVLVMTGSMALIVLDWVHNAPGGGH
Protocol: (§1) To delete the SNAT2 (SLC38A2) gene in modified HCC1806 cells (clone C10 nullizygous for ASCT2 ([Broer et al., 2019])), the GeneArt CRISPR Nuclease Vector with OFP Reporter Kit (Invitrogen; A21174) was employed and complementary 19–20 bp long single-stranded oligonucleotides with overhangs were designed to produce a guide RNA (gRNA) for the Cas9 nuclease that would target exon 7 of the SNAT2 gene. Colonies were analysed by sequencing using the U6 primer included in the GeneArt CRISPR Nuclease Vector with OFP Reporter kit. Plasmids that contained the correct CRISPR nuclease construct were then used to transfect HCC1806 cells with Lipofectamine 2000 (Invitrogen). Prior to transfection, medium was replaced with 2 ml of fresh DMEM/F-12 (supplemented with 10% heat-inactivated FBS and 2 mM glutamine). Plasmid DNA (4 µg) and 10 µL of Lipofectamine 2000 were incubated separately for 5 min at room temperature in 500 µl of Opti-MEM (Invitrogen) before being combined and incubated for a further 30 min at room temperature. The DNA-Lipofectamine complex was then added to the cells in a dropwise manner and allowed to be absorbed over 6 h at 37°C, after which the medium was renewed with fresh DMEM/F-12. Cells were checked for red fluorescence using an EVOS FL cell imaging system (Thermo Fisher Scientific) 48–72 h post transfection. Subsequently, cells were detached using 0.25% Trypsin EDTA. After harvesting and washing thrice with PBS (pH 7.4), cells were resuspended in PBS (pH 7.4) supplemented with 5 mM glucose and 1% dialysed and heat inactivated FBS and passed through a 100 μm cell strainer. The cell filtrate was then pelleted once more and resuspended in the same buffer. Cells were sorted using an ARIA II FACS machine and individually dispensed into the wells of a 96-well plate. Nullizygous clones were identified using a series of assays including the FLIPR membrane potential assay, western blotting and sequencing.
(§2) The FLIPR Membrane Potential Blue Explorer Kit (Molecular Devices) was used to characterise inhibitors and to optimise a high-throughput compound screen. Cells were seeded at approximately 60,000 cells/well on a 96-well plate and allowed to attach and grow overnight in a cell incubator. The next day, the cells were washed once with mHBSS and incubated in a starvation medium (composed of mHBSS with 1% dialysed heat-inactivated FBS, 23 mM NaHCO3, 10 U/ml penicillin and 10 μg/ml streptomycin) for 24 h. Cells were then washed once with mHBSS and incubated with 50 µl of the mHBSS-resuspended FMP assay dye and 50 µl of mHBSS (with or without inhibitors) and incubated at room temperature for 30 min. The plate was then placed in an EnSpire Multimode plate reader (PerkinElmer) and four sequential measurements of fluorescence were recorded as a baseline reference. Immediately after the baseline measurements were taken, 25 µl of 5 mM glutamine dissolved in mHBSS was injected into each well and the plate was shaken orbitally for 5 s before a series of consecutive fluorescence measurements were taken. The excitation wavelength was set to 530 nm and the emission was detected at 565 nm. The Δ fluorescent signal reported in the figures was taken 30 s after substrate addition. After the assay was complete, the liquid content of the plate was carefully removed, and the cell monolayer inspected to ensure it remained intact throughout the course of the assay.

SNAT1 and SNAT2 [2] = target: T2, SNAT1 and SNAT2 (Homo sapiens, UniProt Q9H2H9); test: as above; format: cell-based; conditions: D126 cells
T2 construct: endogenous in cells; host or cells: HCC1806 clone C10 (ASCT2ko) and clone D126 (ASCT2ko, SNAT2ko), amino acid depleted for 24 h
T2 sequence (Q9H2H9 1-487): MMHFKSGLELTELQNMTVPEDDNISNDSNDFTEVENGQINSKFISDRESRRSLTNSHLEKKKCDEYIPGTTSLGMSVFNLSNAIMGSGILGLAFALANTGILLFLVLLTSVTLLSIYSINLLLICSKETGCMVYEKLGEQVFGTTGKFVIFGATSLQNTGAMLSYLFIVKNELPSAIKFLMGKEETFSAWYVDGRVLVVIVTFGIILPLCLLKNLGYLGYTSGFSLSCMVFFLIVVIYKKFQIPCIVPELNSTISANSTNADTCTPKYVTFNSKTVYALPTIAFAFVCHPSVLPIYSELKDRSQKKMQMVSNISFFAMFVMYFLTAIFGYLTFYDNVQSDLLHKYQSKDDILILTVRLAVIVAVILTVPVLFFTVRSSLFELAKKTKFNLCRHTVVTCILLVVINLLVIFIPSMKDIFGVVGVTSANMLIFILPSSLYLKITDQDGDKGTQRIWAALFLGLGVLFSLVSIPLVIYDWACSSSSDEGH
Protocol: as §1, §2

| SMILES | FMP signal as substrate (SNAT1 and SNAT2 [1]) | block of glutamine (1 mM) FMP signal (SNAT1 and SNAT2 [2]) | FMP fluorescence (SNAT1 and SNAT2 [2]; time 0, replicates 1-10) | FMP fluorescence (SNAT1 and SNAT2 [2]; time 12, replicates 1-10) | FMP fluorescence (SNAT1 and SNAT2 [2]; time 30, replicates 1-10) | FMP fluorescence (SNAT1 and SNAT2 [2]; time 40, replicates 1-10) | FMP fluorescence (SNAT1 and SNAT2 [2]; time 50, replicates 1-10) | FMP fluorescence (SNAT1 and SNAT2 [2]; time 60, replicates 1-10) | FMP fluorescence (SNAT1 and SNAT2 [2]; time 70, replicates 1-10) | FMP fluorescence (SNAT1 and SNAT2 [2]; time 80, replicates 1-10) | FMP fluorescence (SNAT1 and SNAT2 [2]; time 90, replicates 1-10) | FMP fluorescence (SNAT1 and SNAT2 [2]; time -10, replicates 1-10) | FMP fluorescence (SNAT1 and SNAT2 [2]; time -20, replicates 1-10) |
| --- | --- | --- | --- | --- | --- | --- | --- | --- | --- | --- | --- | --- | --- |
| C[N+](C)(C)CC(=O)O [Betaine, betaine] | strong FMP signal |  |  |  |  |  |  |  |  |  |  |  |  |
| N[C@@H](CCC(=O)NO)C(=O)O [GHX, L-glutamic acid γ-monohydroxamate] |  | still blocked | 22435 and 17495 and 17429 and 17955 and 18811 and 18812 and 18737 and 18055 and 17050 and 17347 | 20191 | 20609 and 15706 and 15219 and 15815 and 16260 and 16292 and 16468 and 15594 and 14527 and 15164 | 20541 and 15480 and 15193 and 15674 and 16277 and 16260 and 16583 and 15586 and 14696 and 15217 | 20610 and 15277 and 15074 and 15756 and 16154 and 16238 and 16249 and 15554 and 14656 and 15194 | 20690 and 15464 and 15031 and 15758 and 16045 and 16010 and 16126 and 15471 and 14546 and 15121 | 20527 and 15130 and 14967 and 15329 and 16082 and 16096 and 16209 and 15213 and 14316 and 15085 | 20404 and 15072 and 14875 and 15595 and 16009 and 15975 and 15951 and 15190 and 14182 and 15130 | 20524 and 15134 and 14788 and 15354 and 15654 and 15782 and 15863 and 15065 and 14296 | 22909 and 17766 and 17765 and 18446 and 19408 (2×) and 19505 and 18694 and 17349 and 17632 | 23556 and 18431 and 18738 and 19301 and 20185 and 20456 and 20335 and 19156 and 18269 and 18621 |
